This note sets out measurements from publication PMC4877593, “Design and Synthesis of Potent in Vitro and in Vivo Anticancer Agents Based on 1-(3′,4′,5′-Trimethoxyphenyl)-2-Aryl-1H-Imidazole” (Scientific Reports, 2016).

Like-named read-outs stand apart in the source and are kept apart here.

One assay concerns PBL stimulated with PHA. Nature of the assay: Cytotoxicity in PHA-stimulated peripheral blood lymphocytes. It counts as cell-based, human. The note with it: 72 h, PBL from healthy donors, MTT, read-out: IC50 PBLPHA. The method, then: This value was almost 600 times higher than that observed against the Jurkat lymphoblastic cell line.
Human T-cell leukemia (CCRF-CEM and Jurkat) and human B-cell leukemia (SEM) cells were grown in RPMI-1640 medium (Gibco, Milano, Italy). Breast adenocarcinoma (MCF7), human cervix carcinoma (HeLa), and human colon adenocarcinoma (HT-29) cells were grown in DMEM medium (Gibco, Milano, Italy), all supplemented with 115 units/mL penicillin G (Gibco, Milano, Italy), 115 μg/mL streptomycin (Invitrogen, Milano, Italy), and 10% fetal bovine serum (Invitrogen, Milano, Italy). Stock solutions (10 mM) of the different compounds were obtained by dissolving them in dimethyl sulfoxide (DMSO). Individual wells of a 96-well tissue culture microtiter plate were inoculated with 100 μL of complete medium containing 8 × 10^3 cells. The plates were incubated at 37 °C in a humidified 5% CO2 incubator for 18 h prior to the experiments. After medium removal, 100 μL of fresh medium containing the test compound at different concentrations was added to each well in triplicate and incubated at 37 °C for 72 h. The percentage of DMSO in the medium never exceeded 0.25%. This was also the maximum DMSO concentration in all cell-based assays described below. […] Different concentrations of the test compounds were added, and viability was determined 72 h later by the MTT test. […]

A further assay has as its system HeLa. The experiment in a line: Mitochondrial membrane potential (JC-1), HeLa. Format: cell-based, human. The settings on record: HeLa, 50, 100 and 250 nM; time- and concentration-dependent. The protocol:
Mitochondria play an essential role in the propagation of apoptosis. It is well established that, at an early stage, apoptotic stimuli alter the mitochondrial transmembrane potential (Δψmt). Δψmt was monitored by the fluorescence of the dye JC-1. […] This occurred in a time- and concentration-dependent fashion, and, in both cell lines, a significant increase was observed after a 6 h treatment. The disruption of Δψmt is associated with the appearance of annexin-V positivity in the treated cells when they are in an early apoptotic stage. […] Cells were treated with the indicated concentration of compound for 24 or 48 h and then stained with the fluorescent probe JC-1 for analysis of mitochondrial potential or H2-DCFDA for the evaluation of ROS levels. Cells were then analyzed by flow cytometry as described in the experimental section.

For the next assay, the system named is MCF-7. Nature of the assay: In vitro antiproliferative activity (MTT), MCF-7. It counts as cell-based. The note with it: Homo sapiens, MCF7, tumor cell proliferation, 72 h, mean ± SE. The method, then:
Human T-cell leukemia (CCRF-CEM and Jurkat) and human B-cell leukemia (SEM) cells were grown in RPMI-1640 medium (Gibco, Milano, Italy). Breast adenocarcinoma (MCF7), human cervix carcinoma (HeLa), and human colon adenocarcinoma (HT-29) cells were grown in DMEM medium (Gibco, Milano, Italy), all supplemented with 115 units/mL penicillin G (Gibco, Milano, Italy), 115 μg/mL streptomycin (Invitrogen, Milano, Italy), and 10% fetal bovine serum (Invitrogen, Milano, Italy). Stock solutions (10 mM) of the different compounds were obtained by dissolving them in dimethyl sulfoxide (DMSO). Individual wells of a 96-well tissue culture microtiter plate were inoculated with 100 μL of complete medium containing 8 × 10^3 cells. The plates were incubated at 37 °C in a humidified 5% CO2 incubator for 18 h prior to the experiments. After medium removal, 100 μL of fresh medium containing the test compound at different concentrations was added to each well in triplicate and incubated at 37 °C for 72 h. The percentage of DMSO in the medium never exceeded 0.25%. This was also the maximum DMSO concentration in all cell-based assays described below. […] Different concentrations of the test compounds were added, and viability was determined 72 h later by the MTT test. For cytotoxicity evaluations in resting PBL cultures, non-adherent cells were resuspended (5 × 10^5 cells/mL) and treated for 72 h with the test compounds, as described above.

For the compound `CCOc1ccc(-c2nccn2-c2cc(OC)c(OC)c(OC)c2)cc1Cl` [Compound 4o, 2-(3′-Chloro-4′-ethoxyphenyl)-1-(3′,4′,5′-trimethoxyphenyl)-1H-imidazole], the IC50 (commonly the concentration at which inhibition is half-maximal) is approximately 500 nM with PBL stimulated with PHA (Homo sapiens, Lymphocyte); 520 ± 40 nM in the assay on PBL stimulated with PHA; 0.7 ± 0.06 nM with MCF-7. Moreover, the “percentage of cells with low Δψmt (JC-1)” value in the assay on HeLa was “remarkable increase”.
